SOLUBILITY data for 1 compound are collected here from patent US20230094753A1, “NANOSTRUCTURE LIPID CARRIER DELIVERY SYSTEM, COMPOSITION, AND METHODS” (priority 2020, published 2023).

The nature of this data set: CBD solubility in lipid excipients (about 0.345 g CBD exposed to 10 ml lipid). As to conditions: approx. 0.345 g CBD in 10 ml. The class given is physicochemical. As to the method: Approximately 0.345 g of CBD was exposed to 10 ml of the listed lipid and solubility was assessed.

With `C=C(C)[C@@H]1CCC(C)=C[C@H]1c1c(O)cc(CCCCC)cc1O` [CBD, cannabidiol], the SOLUBILITY result is “Medium CBD Solubility” (solvent 1: Apricot Kernel Oil PEG-6 Esters); “Medium CBD Solubility” (solvent 2: Corn Oil PEG-6 Ester); “Stability Problematic” (solvent 3: Ethoxydiglycol); “Medium CBD Solubility” (solvent 4: Glycerine soja (Soyean) oil (and) Glyceryl Distearate (and) Polyglyceryl-3 Dioleate); “Bad CBD Solubility” (solvent 5: Glyceryl Linoleate); “Bad CBD Solubility” (solvent 6: Glyceryl Oleate). Besides, the SOLUBILITY entry is recorded as “Stability Problematic” (solvent 7: PEG-8 Caprylic/Capric Glycerides); “Bad CBD Solubility” (solvent 8: Polyglyceryl-3-diolate); “Good CBD Solubility” (solvent 9: Propylene Glycol Caprate); “Medium CBD Solubility” (solvent 10: Propylene Glycol Laurate); “Medium CBD Solubility” (solvent 13: PEG-8); “Medium CBD Solubility” (solvent 18: Caprylic/Capric Triglyceride). For the same compound, the SOLUBILITY entry (solvent 19: PEG-8 Carylic/Capric Glycerides) is “Good CBD Solubility”; the SOLUBILITY entry (solvent 20: Glyceryl Caprylate/Caprate) was “Medium CBD Solubility”; the SOLUBILITY result (solvent 21: Propylene Glycol Monocaprylate) is on record as “Good CBD Solubility”; the SOLUBILITY result (solvent 22: Olea Europaea (Olive) Oil) is reported as “Bad CBD Solubility”; the SOLUBILITY result (solvent 23: Glycine Soja (Soybean) Oil) was “Medium CBD Solubility”.
